Values quoted from earlier work, collected in US10092609B2, “Process for preparing medicinal mycological preparations” (priority 2015, dated 2018).

Conditions: in vivo

Compound: CC[C@H](C)C(=O)O[C@H]1C[C@@H](C)C=C2C=C[C@H](C)[C@H](CC[C@@H]3C[C@@H](O)CC(=O)O3)[C@H]21 [lovastatin]
- reduction of “bad” LDL-cholesterol in circulation: about 20%
